Data reported in paper PMC10999543, “Identification of kinase modulators as host-directed therapeutics against intracellular methicillin-resistant Staphylococcus aureus” (Frontiers in Cellular and Infection Microbiology, 2024).
Where two headings read alike, the source gives them in different places.

What was measured:
[1] = tested on: HeLa cells; test: Compound screen by flow cytometry: HeLa cell count as surrogate readout of cell viability (z-scoreHeLa); assay type: cell-based, human
Summary of the method: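 HeLa cells were infected with GFP-MRSA (mean MOI 6.8 ± 4.6) for 1 h, and extracellular bacteria were killed with 30 µg/ml gentamicin. Cells were then incubated overnight with kinase inhibitors in 5 µg/ml gentamicin, in triplicate against DMSO controls. Flow-cytometric cell count served as a viability surrogate, expressed as a plate z-score.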

[2] = tested on: intracellular MRSA; assay type: cell-based, Staphylococcus aureus; conditions: for z-scoreMRSA+ mean: mean of 3 replicates; for z-scoreMRSA+ rep 1 / %GFP+ rep 1: replicate 1; for z-scoreMRSA+ rep 2 / %GFP+ rep 2: replicate 2; for z-scoreMRSA+ rep 3 / %GFP+ rep 3: replicate 3
Summary of the method: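 HeLa, MRSA-GFP at MOI ~6.8, 1 h infection; gentamicin 30 µg/ml for 15 min; inhibitor plus gentamicin 5 µg/ml overnight, 37°C/5% CO2; triplicate plates; FACS %GFP+ and cell count; hit = z ≤ -2 MRSA+, z ≥ -3 count.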

[3] = PKIS compound screen, Yes/No call
[4] = PKIS compound screen, mean of 3 replicates
[5] = PKIS compound screen, replicate 1
[6] = PKIS compound screen, replicate 2
[7] = PKIS compound screen, replicate 3
[8] = PKIS compounds raw data, replicate 1, HeLa cell count
[9] = PKIS compounds raw data, replicate 2, HeLa cell count
[10] = PKIS compounds raw data, replicate 3, HeLa cell count
[11] = PKIS compound screen, Yes/No call (effect without cell death)
[12] = PKIS compounds raw data, MRSA-infected HeLa cells
[13] = PKIS compound screen raw data, HeLa cell count, replicate 1
[14] = PKIS compound screen raw data, HeLa cell count, replicate 2
[15] = PKIS compound screen raw data, HeLa cell count, replicate 3
[16] = PKIS compound screen, HeLa cell count, mean of 3 replicates
[17] = PKIS compound screen, HeLa cell count, replicate 1
[18] = PKIS compound screen, HeLa cell count, replicate 2
[19] = PKIS compound screen, HeLa cell count, replicate 3
[20] = PKIS compound screen, Yes/No call on z-scoreHeLa
[21] = PKIS compound screen raw data, MRSA-infected HeLa cells
[22] = PKIS compound screen, MRSA-infected HeLa cells
[23] = PKIS compound screen, Yes/No call on z-scoreMRSA+
[24] = compound screen, HeLa cell count, mean of 3 replicates
[25] = compound screen, HeLa cell count, replicate 1
[26] = compound screen, HeLa cell count, replicate 2
[27] = compound screen, HeLa cell count, replicate 3
[28] = Yes/No: effect without cell death
[29] = compound screen, MRSA-infected HeLa cells

SMILES	cell count rep 1 [1, 8]	cell count rep 2 [1, 9]	cell count rep 3 [1, 10]	hit [2, 11]	%GFP+ rep 1 [2, 12] [%]	%GFP+ rep 2 [2, 12] [%]	%GFP+ rep 3 [2, 12] [%]	cell count rep 1 [1, 13]	cell count rep 2 [1, 14]	cell count rep 3 [1, 15]	z-scoreHeLa mean [1, 16]	z-scoreHeLa rep 1 [1, 17]	%GFP+ rep 1 [2, 21] [%]	%GFP+ rep 2 [2, 21] [%]	%GFP+ rep 3 [2, 21] [%]	z-scoreMRSA+ mean [2, 22]	z-scoreMRSA+ rep 1 [2, 22]	z-scoreMRSA+ rep 2 [2, 22]	z-scoreMRSA+ rep 3 [2, 22]	effect [2, 23]	also measured
Cc1ccc(C(=O)Nc2ccc(Nc3ccnc4cc(-c5nccs5)ccc34)cc2O)cc1 [GW494702A]	6577	7707	7965	No	21.0	19.7	18.9														cell death [1, 3]: No; z-scoreHeLa mean [1, 4]: 0.98; z-scoreHeLa rep 1 [1, 5]: 0.32; z-scoreHeLa rep 2 [1, 6]: 1.13; z-scoreHeLa rep 3 [1, 7]: 1.50; effect [2, 3]: No; z-scoreMRSA+ mean ([2]; PKIS compound screen): -1.32; z-scoreMRSA+ rep 1 ([2]; PKIS compound screen): -1.18; z-scoreMRSA+ rep 2 ([2]; PKIS compound screen): -1.22; z-scoreMRSA+ rep 3 ([2]; PKIS compound screen): -1.55
Cc1cc(NCC(c2ccccc2)c2ccccc2)nc(NCc2ccc(C(F)(F)F)cc2)n1 [GW497681X]	2106	1381	2577	No	22.9	19.6	20.6	17665	6230	5782	-2.65	-2.12	20.1	18.7	19.8	-0.08	0.35	-0.19	-0.39	No	z-scoreHeLa rep 2 [1, 18]: -3.27; z-scoreHeLa rep 3 [1, 19]: -2.56; cell death [1, 3]: No; cell death [1, 20]: No; z-scoreHeLa mean [1, 4]: -2.45; z-scoreHeLa rep 1 [1, 5]: -2.37; z-scoreHeLa rep 2 [1, 6]: -3.07; z-scoreHeLa rep 3 [1, 7]: -1.91; effect [2, 3]: No; z-scoreMRSA+ mean ([2]; PKIS compound screen): -1.09; z-scoreMRSA+ rep 1 ([2]; PKIS compound screen): -0.81; z-scoreMRSA+ rep 2 ([2]; PKIS compound screen): -1.24; z-scoreMRSA+ rep 3 ([2]; PKIS compound screen): -1.24
COc1cc(C=NNc2ncnc3c2cnn3-c2ccccc2)ccc1O [GW513184X]	3697	5698	7463		11.7	13.3	13.0														cell death ([1]; Yes/No call from z-scoreHeLa): No; z-scoreHeLa mean [1, 24]: 0.11; z-scoreHeLa rep 1 [1, 25]: -0.98; z-scoreHeLa rep 2 [1, 26]: 1.08; z-scoreHeLa rep 3 [1, 27]: 0.24; effect ([2]; Yes/No call from z-scoreMRSA+): No; hit [2, 28]: No; z-scoreMRSA+ mean [2, 29]: -0.46; z-scoreMRSA+ rep 1 [2, 29]: -0.47; z-scoreMRSA+ rep 2 [2, 29]: -0.0654; z-scoreMRSA+ rep 3 [2, 29]: -0.85
Fc1cc(Cl)ccc1Nc1ccnc2cc(I)ccc12 [GW551191X]								6255	4849	6828			27.7	23.2	23.8						cell death ([1]; Yes/No call from z-scoreHeLa): No; z-scoreHeLa mean [1, 24]: 0.93; z-scoreHeLa rep 1 [1, 25]: 1.37; z-scoreHeLa rep 2 [1, 26]: 0.42; z-scoreHeLa rep 3 [1, 27]: 1.00; effect ([2]; Yes/No call from z-scoreMRSA+): No; hit [2, 28]: No; z-scoreMRSA+ mean [2, 29]: 0.40; z-scoreMRSA+ rep 1 [2, 29]: 0.57; z-scoreMRSA+ rep 2 [2, 29]: 0.14; z-scoreMRSA+ rep 3 [2, 29]: 0.48
Cc1ccc(O)cc1Nc1ccnc2cc(-c3ccc(CN4CCCCC4)o3)ccc12 [GW557777X]				No				30186	37597	49690	1.17	1.53	13.1	14.2	14.8	-1.44	-1.51	-1.30	-1.52	No	z-scoreHeLa rep 2 [1, 18]: 0.52; z-scoreHeLa rep 3 [1, 19]: 1.46; cell death [1, 20]: No
Cc1ccc(O)cc1Nc1ccnc2ccc(S(C)(=O)=O)cc12 [GW559768X]				Yes									8.1	10.1	9.8	-2.90	-3.11	-2.53	-3.05	Yes	cell death [1]: No; cell count rep 1 ([1]; human): 30393; cell count rep 2 ([1]; human): 35205; cell count rep 3 ([1]; human): 44674; z-scoreHeLa mean ([1]; human): 0.77; z-scoreHeLa rep 1 ([1]; human): 1.56; z-scoreHeLa rep 2 ([1]; human): 0.08; z-scoreHeLa rep 3 ([1]; human): 0.66
Fc1cc(Cl)ccc1Nc1ccnc2cc(-c3ccc(CN4CCSCC4)o3)ccc12 [GW560106X]				No				31348	29129	34674	-0.095	1.70	16.0	19.0	19.0	-0.23	-0.59	0.14	-0.24	No	z-scoreHeLa rep 2 [1, 18]: -1.06; z-scoreHeLa rep 3 [1, 19]: -0.93; cell death [1, 20]: No
Fc1cc(Cl)ccc1Nc1ccnc2cc(-c3ccc(CN4CCOCC4)o3)ccc12 [GW560109X]	5844	6056	7316	No	28.9	24.6	27.6	37673	25490	23726	0.75	1.27	14.2	18.0	17.4	-0.89	-1.22	-0.38	-1.05	No	z-scoreHeLa rep 2 [1, 18]: 0.037; z-scoreHeLa rep 3 [1, 19]: 0.94; cell death [1, 3]: No; cell death [1, 20]: No; z-scoreHeLa mean [1, 4]: 0.33; z-scoreHeLa rep 1 [1, 5]: -0.12; z-scoreHeLa rep 2 [1, 6]: 0.0321; z-scoreHeLa rep 3 [1, 7]: 1.09; effect [2, 3]: No; z-scoreMRSA+ mean ([2]; PKIS compound screen): 0.05; z-scoreMRSA+ rep 1 ([2]; PKIS compound screen): 0.36; z-scoreMRSA+ rep 2 ([2]; PKIS compound screen): -0.28; z-scoreMRSA+ rep 3 ([2]; PKIS compound screen): 0.06
Fc1cc(Cl)ccc1Nc1ccnc2cc(-c3ccc(CN4CCCCC4)o3)ccc12 [GW560116X]								2203	2204	1264			26.5	26.3	25.6						cell death ([1]; Yes/No call from z-scoreHeLa): No; z-scoreHeLa mean [1, 24]: -1.89; z-scoreHeLa rep 1 [1, 25]: -1.55; z-scoreHeLa rep 2 [1, 26]: -1.61; z-scoreHeLa rep 3 [1, 27]: -2.51; effect ([2]; Yes/No call from z-scoreMRSA+): No; hit [2, 28]: No; z-scoreMRSA+ mean [2, 29]: 0.73; z-scoreMRSA+ rep 1 [2, 29]: 0.29; z-scoreMRSA+ rep 2 [2, 29]: 0.89; z-scoreMRSA+ rep 3 [2, 29]: 1.02
